The values that follow come from the NIST ThermoML archive (doi:10.1021/acs.jced.8b00601).

Each structure is given as a SMILES string. Numbers after ± are expanded uncertainties.

A short description of this data set: activity coefficient (dimensionless); of the first substance listed, at infinite dilution; xn = mol fraction of the nth substance listed. As to conditions: 101.33 kPa, Liquid, Chromatography, x1 = 0.

In the case of `CCCO` [propan-1-ol] + O=S(=O)([N-]S(=O)(=O)C(F)(F)F)C(F)(F)F.O=S(=O)([N-]S(=O)(=O)C(F)(F)F)C(F)(F)F.O=S(=O)([N-]S(=O)(=O)C(F)(F)F)C(F)(F)F.c1ccc2cc(-n3cc[n+](Cc4cc(C[n+]5ccn(-c6ccc7ccccc7c6)c5)cc(C[n+]5ccn(-c6ccc7ccccc7c6)c5)c4)c3)ccc2c1, the activity coefficient (313 K) stood at 1.4 ± 0.16, the activity coefficient (323 K) turned out to be 1.1 ± 0.13, the activity coefficient (333 K) amounted to 0.842 ± 0.094 and the activity coefficient (343 K) amounted to 0.73 ± 0.079.

As to `ClC(Cl)(Cl)Cl` [tetrachloromethane] + O=S(=O)([N-]S(=O)(=O)C(F)(F)F)C(F)(F)F.O=S(=O)([N-]S(=O)(=O)C(F)(F)F)C(F)(F)F.O=S(=O)([N-]S(=O)(=O)C(F)(F)F)C(F)(F)F.c1ccc2cc(-n3cc[n+](Cc4cc(C[n+]5ccn(-c6ccc7ccccc7c6)c5)cc(C[n+]5ccn(-c6ccc7ccccc7c6)c5)c4)c3)ccc2c1, the activity coefficient (313 K) amounted to 4.72 ± 0.51, the activity coefficient (323 K) was 4.27 ± 0.47, the activity coefficient (333 K) was found to be 3.29 ± 0.38 and the activity coefficient (343 K) came out at 2.6 ± 0.31.

With `CCO` [ethanol] + O=S(=O)([N-]S(=O)(=O)C(F)(F)F)C(F)(F)F.O=S(=O)([N-]S(=O)(=O)C(F)(F)F)C(F)(F)F.O=S(=O)([N-]S(=O)(=O)C(F)(F)F)C(F)(F)F.c1ccc2cc(-n3cc[n+](Cc4cc(C[n+]5ccn(-c6ccc7ccccc7c6)c5)cc(C[n+]5ccn(-c6ccc7ccccc7c6)c5)c4)c3)ccc2c1, the activity coefficient was 0.927 ± 0.1 (313 K), 0.724 ± 0.082 (323 K), 0.611 ± 0.066 (333 K) and 0.606 ± 0.064 (343 K).

For the compound `Cc1ccc(C)cc1` [1,4-dimethylbenzene] + O=S(=O)([N-]S(=O)(=O)C(F)(F)F)C(F)(F)F.O=S(=O)([N-]S(=O)(=O)C(F)(F)F)C(F)(F)F.O=S(=O)([N-]S(=O)(=O)C(F)(F)F)C(F)(F)F.c1ccc2cc(-n3cc[n+](Cc4cc(C[n+]5ccn(-c6ccc7ccccc7c6)c5)cc(C[n+]5ccn(-c6ccc7ccccc7c6)c5)c4)c3)ccc2c1, the activity coefficient is, setting by setting: (313 K) 4.47 ± 0.56; (323 K) 2.94 ± 0.39; (333 K) 2.09 ± 0.26; (343 K) 1.51 ± 0.2.

Regarding `Cc1ccccc1C` [1,2-dimethylbenzene] + O=S(=O)([N-]S(=O)(=O)C(F)(F)F)C(F)(F)F.O=S(=O)([N-]S(=O)(=O)C(F)(F)F)C(F)(F)F.O=S(=O)([N-]S(=O)(=O)C(F)(F)F)C(F)(F)F.c1ccc2cc(-n3cc[n+](Cc4cc(C[n+]5ccn(-c6ccc7ccccc7c6)c5)cc(C[n+]5ccn(-c6ccc7ccccc7c6)c5)c4)c3)ccc2c1, the activity coefficient (313 K) is 3.35 ± 0.41, the activity coefficient (323 K) was found to be 2.25 ± 0.3, the activity coefficient (333 K) stood at 1.54 ± 0.2 and the activity coefficient (343 K) is 1.04 ± 0.14.

For the compound `O=Cc1ccccc1` [benzaldehyde] + O=S(=O)([N-]S(=O)(=O)C(F)(F)F)C(F)(F)F.O=S(=O)([N-]S(=O)(=O)C(F)(F)F)C(F)(F)F.O=S(=O)([N-]S(=O)(=O)C(F)(F)F)C(F)(F)F.c1ccc2cc(-n3cc[n+](Cc4cc(C[n+]5ccn(-c6ccc7ccccc7c6)c5)cc(C[n+]5ccn(-c6ccc7ccccc7c6)c5)c4)c3)ccc2c1, the activity coefficient by setting is: (313 K) 1 ± 0.1; (323 K) 0.999 ± 0.1; (333 K) 1 ± 0.1; (343 K) 1 ± 0.1.

Take `c1ccccc1` [benzene] + O=S(=O)([N-]S(=O)(=O)C(F)(F)F)C(F)(F)F.O=S(=O)([N-]S(=O)(=O)C(F)(F)F)C(F)(F)F.O=S(=O)([N-]S(=O)(=O)C(F)(F)F)C(F)(F)F.c1ccc2cc(-n3cc[n+](Cc4cc(C[n+]5ccn(-c6ccc7ccccc7c6)c5)cc(C[n+]5ccn(-c6ccc7ccccc7c6)c5)c4)c3)ccc2c1: the activity coefficient runs as follows: (313 K) 2.58 ± 0.3; (323 K) 1.88 ± 0.23; (333 K) 1.35 ± 0.17; (343 K) 0.994 ± 0.12.

On to `Cc1ccccc1` [toluene] + O=S(=O)([N-]S(=O)(=O)C(F)(F)F)C(F)(F)F.O=S(=O)([N-]S(=O)(=O)C(F)(F)F)C(F)(F)F.O=S(=O)([N-]S(=O)(=O)C(F)(F)F)C(F)(F)F.c1ccc2cc(-n3cc[n+](Cc4cc(C[n+]5ccn(-c6ccc7ccccc7c6)c5)cc(C[n+]5ccn(-c6ccc7ccccc7c6)c5)c4)c3)ccc2c1, for which the activity coefficient came out at 3.82 ± 0.43 (313 K), 3.05 ± 0.35 (323 K), 2.42 ± 0.29 (333 K) and 1.69 ± 0.23 (343 K).

For `CC#N` [acetonitrile] + O=S(=O)([N-]S(=O)(=O)C(F)(F)F)C(F)(F)F.O=S(=O)([N-]S(=O)(=O)C(F)(F)F)C(F)(F)F.O=S(=O)([N-]S(=O)(=O)C(F)(F)F)C(F)(F)F.c1ccc2cc(-n3cc[n+](Cc4cc(C[n+]5ccn(-c6ccc7ccccc7c6)c5)cc(C[n+]5ccn(-c6ccc7ccccc7c6)c5)c4)c3)ccc2c1, the activity coefficient runs as follows: (313 K) 0.263 ± 0.038; (323 K) 0.217 ± 0.035; (333 K) 0.189 ± 0.033; (343 K) 0.181 ± 0.032.

Consider `Cc1cccc(C)c1` [1,3-dimethylbenzene] + O=S(=O)([N-]S(=O)(=O)C(F)(F)F)C(F)(F)F.O=S(=O)([N-]S(=O)(=O)C(F)(F)F)C(F)(F)F.O=S(=O)([N-]S(=O)(=O)C(F)(F)F)C(F)(F)F.c1ccc2cc(-n3cc[n+](Cc4cc(C[n+]5ccn(-c6ccc7ccccc7c6)c5)cc(C[n+]5ccn(-c6ccc7ccccc7c6)c5)c4)c3)ccc2c1, for which the activity coefficient is 3.42 ± 0.42 (313 K), 2.31 ± 0.31 (323 K), 1.52 ± 0.19 (333 K) and 1.26 ± 0.14 (343 K).

On to `CC(C)O` [propan-2-ol] + O=S(=O)([N-]S(=O)(=O)C(F)(F)F)C(F)(F)F.O=S(=O)([N-]S(=O)(=O)C(F)(F)F)C(F)(F)F.O=S(=O)([N-]S(=O)(=O)C(F)(F)F)C(F)(F)F.c1ccc2cc(-n3cc[n+](Cc4cc(C[n+]5ccn(-c6ccc7ccccc7c6)c5)cc(C[n+]5ccn(-c6ccc7ccccc7c6)c5)c4)c3)ccc2c1, for which the activity coefficient reads like this: (313 K) 1.89 ± 0.24; (323 K) 1.24 ± 0.16; (333 K) 0.965 ± 0.11; (343 K) 0.693 ± 0.091.

Take `O=C1CCCC1` [cyclopentanone] + O=S(=O)([N-]S(=O)(=O)C(F)(F)F)C(F)(F)F.O=S(=O)([N-]S(=O)(=O)C(F)(F)F)C(F)(F)F.O=S(=O)([N-]S(=O)(=O)C(F)(F)F)C(F)(F)F.c1ccc2cc(-n3cc[n+](Cc4cc(C[n+]5ccn(-c6ccc7ccccc7c6)c5)cc(C[n+]5ccn(-c6ccc7ccccc7c6)c5)c4)c3)ccc2c1: the activity coefficient (313 K) amounted to 0.303 ± 0.039, the activity coefficient (323 K) turned out to be 0.296 ± 0.04, the activity coefficient (333 K) was 0.22 ± 0.035 and the activity coefficient (343 K) turned out to be 0.211 ± 0.034.

Consider `CCCC(C)=O` [pentan-2-one] + O=S(=O)([N-]S(=O)(=O)C(F)(F)F)C(F)(F)F.O=S(=O)([N-]S(=O)(=O)C(F)(F)F)C(F)(F)F.O=S(=O)([N-]S(=O)(=O)C(F)(F)F)C(F)(F)F.c1ccc2cc(-n3cc[n+](Cc4cc(C[n+]5ccn(-c6ccc7ccccc7c6)c5)cc(C[n+]5ccn(-c6ccc7ccccc7c6)c5)c4)c3)ccc2c1, for which the activity coefficient is 0.54 ± 0.062 (313 K), 0.441 ± 0.053 (323 K), 0.365 ± 0.045 (333 K) and 0.341 ± 0.042 (343 K).

With `O=C1CCCCC1` [cyclohexanone] + O=S(=O)([N-]S(=O)(=O)C(F)(F)F)C(F)(F)F.O=S(=O)([N-]S(=O)(=O)C(F)(F)F)C(F)(F)F.O=S(=O)([N-]S(=O)(=O)C(F)(F)F)C(F)(F)F.c1ccc2cc(-n3cc[n+](Cc4cc(C[n+]5ccn(-c6ccc7ccccc7c6)c5)cc(C[n+]5ccn(-c6ccc7ccccc7c6)c5)c4)c3)ccc2c1, the activity coefficient is, setting by setting: (313 K) 1 ± 0.1; (323 K) 0.999 ± 0.1; (333 K) 1 ± 0.1; (343 K) 1 ± 0.1.

For the compound `C1CCCCC1` [cyclohexane] + O=S(=O)([N-]S(=O)(=O)C(F)(F)F)C(F)(F)F.O=S(=O)([N-]S(=O)(=O)C(F)(F)F)C(F)(F)F.O=S(=O)([N-]S(=O)(=O)C(F)(F)F)C(F)(F)F.c1ccc2cc(-n3cc[n+](Cc4cc(C[n+]5ccn(-c6ccc7ccccc7c6)c5)cc(C[n+]5ccn(-c6ccc7ccccc7c6)c5)c4)c3)ccc2c1, the activity coefficient (313 K) was 11.7 ± 1.3, the activity coefficient (323 K) stood at 9.16 ± 1, the activity coefficient (333 K) stood at 8.09 ± 0.9 and the activity coefficient (343 K) was found to be 6.25 ± 0.75.

For `c1ccncc1` [pyridine] + O=S(=O)([N-]S(=O)(=O)C(F)(F)F)C(F)(F)F.O=S(=O)([N-]S(=O)(=O)C(F)(F)F)C(F)(F)F.O=S(=O)([N-]S(=O)(=O)C(F)(F)F)C(F)(F)F.c1ccc2cc(-n3cc[n+](Cc4cc(C[n+]5ccn(-c6ccc7ccccc7c6)c5)cc(C[n+]5ccn(-c6ccc7ccccc7c6)c5)c4)c3)ccc2c1, the activity coefficient amounted to 0.164 ± 0.031 (323 K), 0.173 ± 0.032 (333 K) and 0.198 ± 0.033 (343 K).

For the compound `CCCCCCCC` [octane] + O=S(=O)([N-]S(=O)(=O)C(F)(F)F)C(F)(F)F.O=S(=O)([N-]S(=O)(=O)C(F)(F)F)C(F)(F)F.O=S(=O)([N-]S(=O)(=O)C(F)(F)F)C(F)(F)F.c1ccc2cc(-n3cc[n+](Cc4cc(C[n+]5ccn(-c6ccc7ccccc7c6)c5)cc(C[n+]5ccn(-c6ccc7ccccc7c6)c5)c4)c3)ccc2c1, the activity coefficient is 28.4 ± 3.5 (313 K), 19.4 ± 2.5 (323 K), 14.1 ± 1.8 (333 K) and 9.43 ± 1.4 (343 K).

Consider `C1COCCO1` [1,4-dioxane] + O=S(=O)([N-]S(=O)(=O)C(F)(F)F)C(F)(F)F.O=S(=O)([N-]S(=O)(=O)C(F)(F)F)C(F)(F)F.O=S(=O)([N-]S(=O)(=O)C(F)(F)F)C(F)(F)F.c1ccc2cc(-n3cc[n+](Cc4cc(C[n+]5ccn(-c6ccc7ccccc7c6)c5)cc(C[n+]5ccn(-c6ccc7ccccc7c6)c5)c4)c3)ccc2c1, for which the activity coefficient by setting is: (313 K) 0.481 ± 0.06; (323 K) 0.34 ± 0.047; (333 K) 0.276 ± 0.038; (343 K) 0.262 ± 0.037.
